Assays:
U2OS cells [1] = assay: p53-responsive luciferase reporter assay; assay type: cell-based; conditions: U2OS BP100-luc/CMV-lacZ, 30 μM, 18 h
MDM2 = MDM2 (Homo sapiens, UniProt Q00987); assay: Fluorescence polarization binding affinity; conditions: methyl to 4-chloro phenyl mutation
[2] = Cellular functional assay; assay type: cell-based; conditions: data not shown
HCT-116 p53+/+ cells = assay: MTT assay; assay type: cell-based; conditions: 200 μM, 48 h; for selectivity toward wild-type p53 cells versus p53-deletion cells: HCT-116 p53+/+ vs p53–/–; for suppression of proliferation of wild-type p53 cells: HCT-116 p53+/+
U2OS cells [3] = assay: Western blotting of p21, MDM2 and p53 expression; assay type: cell-based; conditions: 30 μM, 16 h

MDM2, sequence (Q00987 1-150): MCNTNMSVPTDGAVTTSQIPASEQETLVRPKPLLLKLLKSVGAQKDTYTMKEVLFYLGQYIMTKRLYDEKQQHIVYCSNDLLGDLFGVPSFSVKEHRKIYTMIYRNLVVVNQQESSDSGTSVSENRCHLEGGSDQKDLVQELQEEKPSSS

| SMILES | luciferase activity compared with p53 peptide (U2OS cells [1]) | improvement of Kd (MDM2) | activity in the cellular functional assay [2] | selectivity toward wild-type p53 cells versus p53-deletion cells (HCT-116 p53+/+ cells) | suppression of proliferation of wild-type p53 cells (HCT-116 p53+/+ cells) | MDM2 level (U2OS cells [3]) | p21 level (U2OS cells [3]; compared to control (PBS buffer)) |
| --- | --- | --- | --- | --- | --- | --- | --- |
| CC(=O)N[C@@H](CC(C)C)CN(CC(=O)N[C@@H](Cc1ccccc1)CN(CC(=O)N[C@@H](CCC(=O)O)CN(CC(=O)N[C@@H](Cc1c[nH]c2ccccc12)CN(CC(=O)N[C@@H](CCCCN)CN(CC(=O)N[C@@H](CC(C)C)CN(CC(=O)N[C@@H](C)CN(CC(N)=O)S(C)(=O)=O)S(=O)(=O)CC(C)C)S(C)(=O)=O)S(C)(=O)=O)S(C)(=O)=O)S(C)(=O)=O)S(=O)(=O)c1ccc(Cl)cc1 [PS4] | marginally increased luciferase activity | ∼fourfold improvement | none of them is active |  |  |  |  |
| CC(=O)N[C@@H](CC(C)C)CN(CC(=O)N[C@@H](Cc1ccccc1)CN(CC(=O)N[C@@H](CCC(=O)O)CN(CC(=O)N[C@@H](Cc1c[nH]c2ccccc12)CN(CC(=O)N[C@@H](CCCCN)CN(CC(=O)N[C@@H](CC1CCC1)CN(CC(=O)N[C@@H](C)CN(CC(N)=O)S(C)(=O)=O)S(=O)(=O)CC(C)C)S(C)(=O)=O)S(C)(=O)=O)S(C)(=O)=O)S(C)(=O)=O)S(=O)(=O)c1ccc(Cl)cc1 [PS10] | marginally increased luciferase activity |  | none of them is active | more selective toward wild-type p53 cells than p53-deletion cells | suppress proliferation of wild-type p53 cells more efficiently than the p53 peptides |  |  |
| CC(=O)N[C@@H](CC(C)C)CN(CC(=O)N[C@@H](Cc1ccccc1)CN(CC(=O)N[C@@H](CCC(=O)O)CN1CC(=O)N[C@@H](Cc2c[nH]c3ccccc23)CN(S(C)(=O)=O)CC(=O)N[C@@H](CCCCN)CN(CC(=O)N[C@@H](CC(C)C)CN(CC(=O)N[C@@H](C)CN(CC(N)=O)S(C)(=O)=O)S(=O)(=O)CC(C)C)S(=O)(=O)CCCC/C=C\CCCCS1(=O)=O)S(C)(=O)=O)S(=O)(=O)c1ccc(Cl)cc1 [PS11] |  |  |  | more selective toward wild-type p53 cells than p53-deletion cells | suppress proliferation of wild-type p53 cells more efficiently than the p53 peptides | increased moderately | increased significantly |
| CC(=O)N[C@@H](CC(C)C)CN(CC(=O)N[C@@H](Cc1ccccc1)CN(CC(=O)N[C@@H](CCC(=O)O)CN1CC(=O)N[C@@H](Cc2c[nH]c3ccccc23)CN(S(C)(=O)=O)CC(=O)N[C@@H](CCCCN)CN(CC(=O)N[C@@H](CC(C)C)CN(CC(=O)N[C@@H](C)CN(CC(N)=O)S(C)(=O)=O)S(=O)(=O)CC(C)C)S(=O)(=O)CC/C=C/CCCCS1(=O)=O)S(C)(=O)=O)S(=O)(=O)c1ccc(Cl)cc1 [PS12] |  |  |  |  |  | increased moderately |  |
